Test results from US11084826B2, “RSV antiviral pyrazolo- and triazolo-pyrimidine compounds” (Janssen Sciences Ireland Unlimited Company, priority 2015, dated 2021).
Values joined by “and” are separate entries in the source; they are usually repeats but may differ in a detail not shown here. Identical values can stand only once. Like-named read-outs stand apart in the source and are kept apart here.

Experiments:
[1] = system: rgRSV224 virus; test: Antiviral activity: inhibition of rgRSV224 (GFP-expressing RSV) replication in HeLa cells, GFP expression read-out; assay type: cell-based, respiratory syncytial virus (RSV); details: rgRSV224 virus (MOI=1) in HeLa cells, GFP read-out
Summary of the method: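 EC50 is the 50% inhibitory concentration for GFP expression, read by laser microscopy three days after rgRSV224 infection (MOI=1) of HeLa cells (3,000/well). Compounds were tested as 9 serial 4-fold dilutions at 0.05% DMSO, and cells were incubated at 37° C under 5% CO2.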

[2] = system: HeLa cells; test: Cytotoxicity in HeLa cells, ATP content measured with the ATPlite kit; assay type: cell-based

| SMILES | RSV HELA pEC50 [1] | TOX HELA pCC50 [2] | TOX HELA pCC50 ([2]; HeLa cells, cytotoxicity) |
| --- | --- | --- | --- |
| C[C@@H]1CCCCCN1C(=O)c1cc(C2CC2)n2nc(-c3ccc(-c4ccc(C(=O)O)cn4)cc3F)cc2n1 [Compound F21] | 7.28 | 4.37 |  |
| CC(C)Cc1cc(C(=O)N2CCCCC[C@H]2C)nc2cc(-c3ccc(-n4cc(C(=O)O)cn4)cc3F)nn12 [Compound W13] | 7.45 | 4.38 |  |
| CCc1cc(C(=O)N2CCn3cccc3C2C)nc2cc(-c3cccc(/C=C/C(=O)O)c3F)nn12 (centres unmarked) [Compound M45] | 7.54 | <4 |  |
| CCc1cc(C(=O)N2CCCCC[C@H]2C)nc2cc(-c3ccc(C4=CCCC(C(=O)O)C4)cc3F)nn12 (some centres unmarked) [Compound F52] | 6.81 | 4.22 |  |
| C[C@@H]1CCCCCN1C(=O)c1cc(C2(C)CC2)n2nc(-c3cccc(/C=C/C(=O)O)c3F)cc2n1 [Compound M22] | 7.34 | 4.05 |  |
| CCc1cc(C(=O)N2CCc3ccccc3[C@H]2C)nc2cc(-c3ccc4c(c3F)OCC(C(=O)O)=C4)nn12 [Compound F54] | 8.59 | 4.75 |  |
| CCc1cc(C(=O)N2CCCCC[C@H]2C)nc2cc(-c3ccc4oc(C(=O)O)cc4c3F)nn12 [Compound F44] | 6.40 | 4.25 |  |
| CCc1cc(C(=O)N2CCCCC[C@H]2C)nc2cc(-c3ccc(-c4nc(C(=O)O)ccc4F)cc3F)nn12 [Compound F20] | 7.07 | 4.30 |  |
| CC1c2ccsc2CCN1C(=O)c1cc(C2(C)CC2)n2nc(-c3cccc(/C=C/C(=O)O)c3F)cc2n1 (centres unmarked) [Compound M47] | 7.87 | 4.07 |  |
| CCc1cc(C(=O)N2CCCCCC2C)nc2cc(-c3ccc(NC(=O)OCC4CCCN4)cc3F)nn12 (centres unmarked) [Compound C3] | 6.78 and 6.55 |  | <4.60 and 4.89 |
| CCc1cc(C(=O)N2CCCCC[C@H]2C)nc2cc(-c3ccc(OC)c(/C=C/C(=O)O)c3F)nn12 [Compound M34] | 7.04 | <4 |  |
| CCc1cc(C(=O)N2CCCCC[C@H]2C)nc2cc(-c3ccc4c(c3F)OCC(C(=O)O)C4)nn12 (some centres unmarked) [Compound F42] | 7.16 | <4 |  |
| CCc1cc(C(=O)N2CCCCC[C@H]2C)nc2cc(-c3ccc4c(c3F)OC[C@H](C(=O)O)C4)nn12 [Compound F64] | 7.12 | <4 |  |
| CCc1cc(C(=O)N2CCCCCC2C)nc2cc(-c3ccccc3Cl)nn12 (centres unmarked) [Compound A3] | 5.45 | 4.40 |  |
| CCc1cc(C(=O)N2CCc3ccccc3C2C)nc2cc(-c3cc4cccnc4cc3F)nn12 (centres unmarked) [Compound A31] | 6.20 | <4.60 |  |
| CCc1cc(C(=O)N2CCCCC[C@H]2C)nc2cc(-c3cccc(/C=C\C(=O)O)c3F)nn12 [Compound M31] | 6.13 | <4 |  |
| CCc1cc(C(=O)N2CCCCC[C@H]2C)nc2cc(-c3ccc4c(c3F)C=C(C(=O)O)CO4)nn12 [Compound F46] | 7.31 | <4 |  |
| CCc1cc(C(=O)N2CCCCCN2C)nc2cc(-c3cccc(/C=C/C(=O)O)c3F)nn12 [Compound M40] | 6.37 | <4 |  |
| CCc1cc(C(=O)N2CCc3ccccc3[C@H]2C)nc2cc(-c3ccc(C4C[C@H]4C(=O)O)cc3F)nn12 (some centres unmarked) [Compound O15] | 7.91 | 4.32 |  |
| CCc1cc(C(=O)N2CCCCCC2C)nc2cc(-c3ccc4[nH]c(=O)ccc4c3)nn12 (centres unmarked) [Compound A15] | 6.47 | <4.60 |  |
| CCc1cc(C(=O)N2CCn3c(C)ccc3C2C)nc2cc(-c3ccc(C(N)=O)cc3F)nn12 (centres unmarked) [Compound I36] | 6.58 | <4.60 |  |
| CCc1cc(C(=O)N2CCc3sccc3[C@H]2C)nc2cc(-c3ccc(-c4ccc(C(=O)O)cn4)cc3F)nn12 [Compound F63] | 7.34 | 4.35 |  |
